Measured values taken from patent US20040037774A1, “Carrier for carrying radioactive substances and methods for using the same” (priority 2002, published 2004).

How the values were obtained:
[1] = system: human neuroblastoma cells (tumor cells); assay: Affinity test on R-phycoerythrin for tumor cells (fluorescent microscopy); type: cell-based; details: 10, 20, 40 μg/ml R-phycoerythrin, 24-hour incubation, FIG. 4B-4D
Protocol: (§1) R-phycoerythrin is complete dialyzed with 150 mM sodium phosphate buffer, and then serial dilution is carried out by using MEM medium as diluent to obtain the R-phycoerythrin dilutions of concentrations between 1-100 μg/ml.
(§2) The tumor cells are human neuroblastoma cells, and normal cells for comparison are human fibroblast cells. First, cells are maintained in MEM medium (pH 7.4) supplemented with 10% fetal bovine serum, and incubate at 37° C. and 95% humidity. Replace the MEM medium every two days. When carrying out cell subculture, first remove the medium, and rinse the cells once with sodium phosphate buffer. Then add 0.25% trypsin-EDTA to detach the cells from the surface of petri dish, and stop the reaction of trypsin-EDTA by giving proper amount of foregoing MEM medium, and thus the cell suspension is obtained. Secondly, seed 100,000 to 400,000 cells onto cover slips placed in a 12-well culture plate and incubate at 37° C. and 95% humidity for 16 hours.
(§3) Following is the affinity test on R-phycoerythrin for human fibroblast cells (normal cells) and human neuroblastoma cells (tumor cells). Take the 12-well culture plate with cells growing on cover slips mentioned in step 2. Remove the medium and rinse the cells once with sodium phosphate buffer. Add 1 mL of R-phycoerythrin dilutions mentioned in step 1 to the cells and follow with incubation at 37° C. and 95% humidity. […]

[2] = system: human fibroblast cells (normal cells); assay: Affinity test on R-phycoerythrin for normal cells (fluorescent microscopy); type: cell-based; details: 10, 20, 40 μg/ml R-phycoerythrin, 24-hour incubation, FIG. 3B-3D
Protocol: as §1, §2, §3

R-phycoerythrin
strength of fluorescence signal in cells (accumulation of R-phycoerythrin) [1]: in accordance with the increasing amount of R-phycoerythrin
fluorescent signal in cells (accumulation of R-phycoerythrin) [2]: no fluorescent signal is observed
